Tested on: yeast genes (expressed mRNA)
Assay: DNA chip measurement of expressed mRNA of yeast genes after culture with a toxic chemical substance
Assay type: cell-based, Saccharomyces cerevisiae S288C
Details: for The level of expressed mRNA in the presence of chemical substance/The level of expressed mRNA in the absence of chemical substance: cultured two hours with substance; for level of expressed mRNA in the presence of chemical substance / level in the absence of chemical substance: cultured two hours with the chemical substance
How it was run: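 S. cerevisiae S288C grown at 25 °C in YPD, exposed in log phase for 2 h to a toxicant at growth-inhibiting, non-lethal concentration. Cy3/Cy5-labelled cDNA from poly(A) mRNA hybridized to whole-genome chip at 65 °C >12 h. Ratio to untreated control, ≥2 significant.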

Na2As [(1)]
The level of expressed mRNA in the presence of chemical substance/The level of expressed mRNA in the absence of chemical substance (yeast gene YJL151C): 1.0 | The level of expressed mRNA in the presence of chemical substance/The level of expressed mRNA in the absence of chemical substance (yeast gene YJL152W): 0.9 | The level of expressed mRNA in the presence of chemical substance/The level of expressed mRNA in the absence of chemical substance (yeast gene YJL161W): 1.7 | The level of expressed mRNA in the presence of chemical substance/The level of expressed mRNA in the absence of chemical substance (yeast gene YJL171C): 2.3 | The level of expressed mRNA in the presence of chemical substance/The level of expressed mRNA in the absence of chemical substance (yeast gene YJR008W): 1.6 | level of expressed mRNA in the presence of chemical substance / level in the absence of chemical substance (yeast gene YJR030C): 0.7 | The level of expressed mRNA in the presence of chemical substance/The level of expressed mRNA in the absence of chemical substance (yeast gene YJR054W): 0.8 | level of expressed mRNA in the presence of chemical substance / level in the absence of chemical substance (yeast gene YKL051W): 1.0 | The level of expressed mRNA in the presence of chemical substance/The level of expressed mRNA in the absence of chemical substance (yeast gene YKL071W): 8.3 | The level of expressed mRNA in the presence of chemical substance/The level of expressed mRNA in the absence of chemical substance (yeast gene YKL086W): 1.0 | level of expressed mRNA in the presence of chemical substance / level in the absence of chemical substance (yeast gene YKL097C): 0.9 | level of expressed mRNA in the presence of chemical substance / level in the absence of chemical substance (yeast gene YKL100C): 0.7 | The level of expressed mRNA in the presence of chemical substance/The level of expressed mRNA in the absence of chemical substance (yeast gene YKL151C): 1.2 | The level of expressed mRNA in the presence of chemical substance/The level of expressed mRNA in the absence of chemical substance (yeast gene YKL153W): 1.1 | The level of expressed mRNA in the presence of chemical substance/The level of expressed mRNA in the absence of chemical substance (yeast gene YKL195W): 0.8 | level of expressed mRNA in the presence of chemical substance / level in the absence of chemical substance (yeast gene YKR040C): 1.2 | The level of expressed mRNA in the presence of chemical substance/The level of expressed mRNA in the absence of chemical substance (yeast gene YKR091W): 1.5 | The level of expressed mRNA in the presence of chemical substance/The level of expressed mRNA in the absence of chemical substance (yeast gene YLR054C): 2.0 | The level of expressed mRNA in the presence of chemical substance/The level of expressed mRNA in the absence of chemical substance (yeast gene YLR149C): 1.4 | The level of expressed mRNA in the presence of chemical substance/The level of expressed mRNA in the absence of chemical substance (yeast gene YLR152C): 0.7 | The level of expressed mRNA in the presence of chemical substance/The level of expressed mRNA in the absence of chemical substance (yeast gene YLR194C): 2.1 | level of expressed mRNA in the presence of chemical substance / level in the absence of chemical substance (yeast gene YLR226W): 1.0 | The level of expressed mRNA in the presence of chemical substance/The level of expressed mRNA in the absence of chemical substance (yeast gene YLR324W): 0.7 | level of expressed mRNA in the presence of chemical substance / level in the absence of chemical substance (yeast gene YLR338W): 1.1 | The level of expressed mRNA in the presence of chemical substance/The level of expressed mRNA in the absence of chemical substance (yeast gene YLR350W): 1.2 | The level of expressed mRNA in the presence of chemical substance/The level of expressed mRNA in the absence of chemical substance (yeast gene YLR387C): 0.9 | level of expressed mRNA in the presence of chemical substance / level in the absence of chemical substance (yeast gene YLR392C): 1.1 | level of expressed mRNA in the presence of chemical substance / level in the absence of chemical substance (yeast gene YLR415C): 1.1 | level of expressed mRNA in the presence of chemical substance / level in the absence of chemical substance (yeast gene YLR427W): 0.6 | The level of expressed mRNA in the presence of chemical substance/The level of expressed mRNA in the absence of chemical substance (yeast gene YLR460C): 2.1 | level of expressed mRNA in the presence of chemical substance / level in the absence of chemical substance (yeast gene YML013W): 0.8 | level of expressed mRNA in the presence of chemical substance / level in the absence of chemical substance (yeast gene YML029W): 0.6 | level of expressed mRNA in the presence of chemical substance / level in the absence of chemical substance (yeast gene YML041C): 1.2 | level of expressed mRNA in the presence of chemical substance / level in the absence of chemical substance (yeast gene YML079W): 1.0 | The level of expressed mRNA in the presence of chemical substance/The level of expressed mRNA in the absence of chemical substance (yeast gene YML117W): 0.9 | The level of expressed mRNA in the presence of chemical substance/The level of expressed mRNA in the absence of chemical substance (yeast gene YMR009W): 2.3 | The level of expressed mRNA in the presence of chemical substance/The level of expressed mRNA in the absence of chemical substance (yeast gene YMR067C): 0.9 | level of expressed mRNA in the presence of chemical substance / level in the absence of chemical substance (yeast gene YMR068W): 0.9 | level of expressed mRNA in the presence of chemical substance / level in the absence of chemical substance (yeast gene YMR071C): 1.0 | The level of expressed mRNA in the presence of chemical substance/The level of expressed mRNA in the absence of chemical substance (yeast gene YMR090W): 6.9 | The level of expressed mRNA in the presence of chemical substance/The level of expressed mRNA in the absence of chemical substance (yeast gene YMR095C): 1.1 | The level of expressed mRNA in the presence of chemical substance/The level of expressed mRNA in the absence of chemical substance (yeast gene YMR097C): 1.5 | The level of expressed mRNA in the presence of chemical substance/The level of expressed mRNA in the absence of chemical substance (yeast gene YMR102C): 1.0 | The level of expressed mRNA in the presence of chemical substance/The level of expressed mRNA in the absence of chemical substance (yeast gene YMR107W): 5.0 | level of expressed mRNA in the presence of chemical substance / level in the absence of chemical substance (yeast gene YMR160W): 0.8 | The level of expressed mRNA in the presence of chemical substance/The level of expressed mRNA in the absence of chemical substance (yeast gene YMR180C): 1.2 | The level of expressed mRNA in the presence of chemical substance/The level of expressed mRNA in the absence of chemical substance (yeast gene YMR184W): 1.3 | The level of expressed mRNA in the presence of chemical substance/The level of expressed mRNA in the absence of chemical substance (yeast gene YMR191W): 1.3 | The level of expressed mRNA in the presence of chemical substance/The level of expressed mRNA in the absence of chemical substance (yeast gene YMR295C): 1.7 | The level of expressed mRNA in the presence of chemical substance/The level of expressed mRNA in the absence of chemical substance (yeast gene YMR316W): 3.2 | level of expressed mRNA in the presence of chemical substance / level in the absence of chemical substance (yeast gene YNL026W): 0.7 | The level of expressed mRNA in the presence of chemical substance/The level of expressed mRNA in the absence of chemical substance (yeast gene YNL044W): 1.3
